Test results reported in ChEMBL document CHEMBL5550144, “Lysine-homologue substitution: Impact on antimicrobial activity and proteolytic stability of cationic stapled heptapeptides” (Bioorg Med Chem, 2024).
Values after ≈ are worked out from the molar mass of the structure shown. Positions of bridges follow the written chain, without caps; N, C: chain ends. Non-standard residues stand in square brackets, D forms with d. Residues, ends and D or L forms follow the SMILES beside them. S5 = C=CCCC[C@](C)(N)C(=O)O; Nle = CCCC[C@H](N)C(=O)O; Orn = NCCC[C@H](N)C(=O)O; Dab = NCC[C@H](N)C(=O)O; Dap = NC[C@H](N)C(=O)O

Legend:
Staphylococcus aureus = experiment: Antimicrobial activity against Staphylococcus aureus ATCC 6538p assessed as inhibition of bacterial growth measured for 24 hrs by standard broth microdilution method; type: functional
[1] = tested on: Staphylococcus epidermidis; experiment: Antimicrobial activity against Staphylococcus epidermidis ATCC 12228 assessed as inhibition of bacterial growth measured for 24 hrs by standard broth microdilution method; type: functional
Escherichia coli = experiment: Antimicrobial activity against Escherichia coli ATCC 25922 assessed as inhibition of bacterial growth measured for 24 hrs by standard broth microdilution method; type: functional
Shigella dysenteriae = experiment: Antimicrobial activity against Shigella dysenteriae ATCC 9752 assessed as inhibition of bacterial growth measured for 24 hrs by standard broth microdilution method; type: functional
Salmonella typhimurium = experiment: Antimicrobial activity against Salmonella enterica subsp. enterica serovar Typhimurium ATCC 14028 assessed as inhibition of bacterial growth measured for 24 hrs by standard broth microdilution method; type: functional
Klebsiella pneumoniae = experiment: Antimicrobial activity against Klebsiella pneumoniae ATCC 10031 assessed as inhibition of bacterial growth measured for 24 hrs by standard broth microdilution method; type: functional
Pseudomonas aeruginosa = experiment: Antimicrobial activity against Pseudomonas aeruginosa ATCC 27853 assessed as inhibition of bacterial growth measured for 24 hrs by standard broth microdilution method; type: functional
[2] = Hemolytic activity in human Red blood cells assessed as hemolysis rate at 24 uM incubated for 30 mins by absorbance based analysis relative to control; type: toxicity, cell-based, Erythrocyte; details: read-out: Activity
Trypsin [3] = biological target: T1, Trypsin (Homo sapiens, UniProt P07477+P07478+P35030); experiment: Proteolytic stability of compound assessed as trypsin (unknown origin) mediated drug degradation measured at 10 to 60 mins by HPLC analysis; type: ADME, protein assay; details: time 10-60 min, read-out: Drug degradation
Trypsin [4] = biological target: T1, Trypsin; experiment: Proteolytic stability of compound assessed as trypsin (unknown origin) mediated drug degradation by measuring half life measured at 10 to 60 mins by HPLC analysis; type: ADME, protein assay; details: time 10-60 min
Trypsin [5] = biological target: T1, Trypsin; experiment: Proteolytic stability of compound assessed as trypsin (unknown origin) mediated drug hydrolysis measured at 10 to 60 mins by HPLC analysis; type: ADME, protein assay; details: time 10-60 min, read-out: Drug degradation
Trypsin [6] = biological target: T1, Trypsin; experiment: Proteolytic stability of compound assessed as trypsin (unknown origin) mediated drug degradation by measuring parent compound remaining measured at 10 to 60 mins by HPLC analysis; type: ADME, protein assay; details: time 10-60 min

Row | Structure (SMILES) | MIC (Staphylococcus aureus) | MIC [1] | MIC (Escherichia coli) | MIC (Shigella dysenteriae) | MIC (Salmonella typhimurium) | MIC (Klebsiella pneumoniae) | MIC (Pseudomonas aeruginosa) | hemolysis at 0.5 h, 24 µM [2] | metabolised (Trypsin [3]) | half-life (Trypsin [4]) | metabolised (Trypsin [5]) | Stability (Trypsin [6])
1 | C[C@@]1(C(=O)N[C@@H](CCCCN)C(N)=O)CCC/C=C/CCC[C@](C)(NC(=O)[C@@H](N)CCCCN)C(=O)N[C@@H](Cc2c[nH]c3ccccc23)C(=O)N[C@@H](CCCCN)C(=O)N[C@@H](CCC(=O)O)C(=O)N1 (H-K[S5]WKE[S5]K-NH2; staple (E) 2-6) | > 100 µg/mL | > 100 µg/mL | > 100 µg/mL | > 100 µg/mL | > 100 µg/mL | > 100 µg/mL | > 100 µg/mL | < 0.1% | – | – | – | –
2 | CCCC[C@@H]1NC(=O)[C@H](CCCCN)NC(=O)[C@H](Cc2c[nH]c3ccccc23)NC(=O)[C@@](C)(NC(=O)[C@@H](N)CCCCN)CCC/C=C/CCC[C@@](C)(C(=O)N[C@@H](CCCCN)C(N)=O)NC1=O (H-K[S5]WK[Nle][S5]K-NH2; staple (E) 2-6) | 12.5 µg/mL (≈ 13.1 µM) | 6.3 µg/mL (≈ 6.62 µM) | 25 µg/mL (≈ 26.3 µM) | 12.5 µg/mL (≈ 13.1 µM) | 50 µg/mL (≈ 52.6 µM) | 50 µg/mL (≈ 52.6 µM) | 25 µg/mL (≈ 26.3 µM) | 0.5% | > 40% | 1.33 h | – | –
3 | CCCC[C@@H]1NC(=O)[C@H](CCN)NC(=O)[C@H](Cc2c[nH]c3ccccc23)NC(=O)[C@@](C)(NC(=O)[C@@H](N)CCN)CCC/C=C/CCC[C@@](C)(C(=O)N[C@@H](CCN)C(N)=O)NC1=O (H-[Dab][S5]W[Dab][Nle][S5][Dab]-NH2; staple (E) 2-6) | 25 µg/mL (≈ 28.8 µM) | 12.5 µg/mL (≈ 14.4 µM) | 25 µg/mL (≈ 28.8 µM) | 25 µg/mL (≈ 28.8 µM) | 50 µg/mL (≈ 57.7 µM) | 50 µg/mL (≈ 57.7 µM) | 50 µg/mL (≈ 57.7 µM) | 0.1% | – | 4.82 h | 11% | –
4 | CCCC[C@@H]1NC(=O)[C@H](CN)NC(=O)[C@H](Cc2c[nH]c3ccccc23)NC(=O)[C@@](C)(NC(=O)[C@@H](N)CN)CCC/C=C/CCC[C@@](C)(C(=O)N[C@@H](CN)C(N)=O)NC1=O (H-[Dap][S5]W[Dap][Nle][S5][Dap]-NH2; staple (E) 2-6) | 12.5 µg/mL (≈ 15.2 µM) | 25 µg/mL (≈ 30.3 µM) | 25 µg/mL (≈ 30.3 µM) | 25 µg/mL (≈ 30.3 µM) | 50 µg/mL (≈ 60.6 µM) | 50 µg/mL (≈ 60.6 µM) | 50 µg/mL (≈ 60.6 µM) | 0.2% | – | 6.38 h | – | > 90%
5 | CCCC[C@@H]1NC(=O)[C@H](CCCN)NC(=O)[C@H](Cc2c[nH]c3ccccc23)NC(=O)[C@@](C)(NC(=O)[C@@H](N)CCCN)CCC/C=C/CCC[C@@](C)(C(=O)N[C@@H](CCCN)C(N)=O)NC1=O (H-[Orn][S5]W[Orn][Nle][S5][Orn]-NH2; staple (E) 2-6) | 12.5 µg/mL (≈ 13.7 µM) | 6.3 µg/mL (≈ 6.93 µM) | 25 µg/mL (≈ 27.5 µM) | 12.5 µg/mL (≈ 13.7 µM) | 25 µg/mL (≈ 27.5 µM) | 37.5 µg/mL (≈ 41.2 µM) | 18.8 µg/mL (≈ 20.7 µM) | 0.4% | – | 4.3 h | 11% | –
